We go through two compounds from patent US20100172916A1, “SUBSTITUTED HYDROXYPHENYLAMINE COMPOUNDS” (AUSPEX PHARMACEUTICALS, INC., priority 2008, published 2010).

The nature of this data set: In vitro liver microsomal stability assay. It counts as in vitro ADME. To be noted: 0.5 mg per mL liver microsome protein, NADPH-generating system, 5 microgram per mL test compound, 37° C., 0-30 minutes, LC/MS/MS. The procedure:
Liver microsomal stability assays were conducted at 0.5 mg per mL liver microsome protein with an NADPH-generating system in 2% sodium bicarbonate (2.2 mM NADPH, 25.6 mM glucose 6-phosphate, 6 units per mL glucose 6-phosphate dehydrogenase and 3.3 mM magnesium chloride). Test compounds were prepared as solutions in 20% acetonitrile-water and were added to the assay mixture (final assay concentration 5 microgram per mL) and incubated at 37° C. Final concentration of acetonitrile in the assay should be <1%. Aliquots (50 μL) were taken out at times 0, 7.5, 15, 22.5, and 30 minutes, and diluted with ice cold acetonitrile (200 μL) to stop the reactions. Samples were centrifuged at 12,000 RPM for 10 minutes to precipitate proteins. Supernatants were transferred to microcentrifuge tubes and stored for LC/MS/MS analysis of the degradation half-life of the test compounds.
A general note: Liver microsomes are a subcellular fraction often used to study metabolism.

On to `[2H]C([2H])(c1cccc(O)c1)[C@]([2H])(N)C(=O)O` [Example 3, d3-2-Amino-3-(3-hydroxy-phenyl)-propionic acid], for which the “degradation half-life as compared to the non-isotopically enriched drug” value was “decrease in degradation half-life”.

For `[2H][C@@H](c1cccc(O)c1)[C@]([2H])(N)C(=O)O` [Example 2, d3-2-Amino-3-(3-hydroxy-phenyl)-propionic acid], the “degradation half-life as compared to the non-isotopically enriched drug” value is recorded as “decrease in degradation half-life”.
